# Values of other authors, collected in patent publication US8333981B2, “Antifungal treatment of nails” (Humco Holding Group, Inc., priority 2007, dated 2012).
# Like-named read-outs stand apart in the source and are kept apart here.
# Columns and labels:
# [1] = not told
# [2] = not told; remark: listed apart in the source
# [3] = tested on: fungi known to cause onychomycosis
# [4] = tested on: onychomycosis of fingernails and toenails due to Trichophyton rubrum; conditions: after several months of use
# [5] = in vitro
# [6] = tested on: chronic infections of the nails; conditions: human, in vivo
# [7] = tested on: C. albicans (monilia), C. neoformans, B. dermatitidis, A. israelii, H. capsulatum, C. immitis, M. furfur (tinea versicolor) and bacteria
# [8] = in vivo, po
# [9] = human, in vivo
compound,measurement,setting,value
CCO [ethanol],average permeability coefficient,[1],5.8+/−3.1×10(−3) cm hr-1
"Clc1ccc(COC(Cn2ccnc2)c2ccc(Cl)cc2Cl)c(Cl)c1 (centres unmarked) [Water-soluble miconazole, miconazole]",dermatophyte isolates being sensitive,dermatophyte isolates,75%
CCCCCCCCO [n-octanol],permeability coefficient,,0.075 ×10⁻⁶ cm/s
NC(N)=O [Urea],drug permeability compared to control,[2],significant increase
CC1CCC(C(C)C)C(O)C1 (centres unmarked) [Menthol],effect on fungi causing onychomycosis / toenail infection,[3],specifically inhibits the growth
"Cc1cc(C2CCCCC2)n(O)c(=O)c1 [Ciclopirox, ciclopirox]",cure rate,[4],14%
Cc1ccc(C(C)C)c(O)c1 [Thymol],effect on fungi causing onychomycosis / toenail infection,[3],effective
O=C([O-])CS.[Na+] [Sodium Thioglycolate],increase in flux compared to the control,[5],3.8 fold
O [water],average permeability coefficient,[1],16.5+/−5.9×10(−3) cm hr-1
same,permeability coefficient,not told,4.58 ×10⁻⁶ cm/s
Clc1ccccc1C(c1ccccc1)(c1ccccc1)n1ccnc1 [Clotrimazole],dermatophyte isolates being sensitive,dermatophyte isolates,30.55%
CC12CCC(CC1=O)C2(C)C (centres unmarked) [Camphor],anti-fungal activity,toenail fungus,little or no detectable anti-fungal activity
"COC1=CC(=O)C[C@@H](C)[C@]12Oc1c(Cl)c(OC)cc(OC)c1C2=O [Griseofulvin, griseofulvin]",cure rates,[6],poor cure rates
same,activity against listed organisms,[7],inactive
CCC(C)n1ncn(-c2ccc(N3CCN(c4ccc(OCC5COC(Cn6cncn6)(c6ccc(Cl)cc6Cl)O5)cc4)CC3)cc2)c1=O (centres unmarked) [itraconazole],total observed incidence of adverse events possibly or directly drug-related,[8],18.2%
Cc1cccc(N(C)C(=S)Oc2ccc3ccccc3c2)c1 [Tolnaftate],dermatophyte isolates being sensitive,dermatophyte isolates,47.22%
OC(Cn1cncn1)(Cn1cncn1)c1ccc(F)cc1F [fluconazole],patients who experienced adverse events,[9],Sixteen
